The values that follow come from patent publication US9623111B2, “Pegylated artesunate derivative, pharmaceutical composition and use thereof” (Institute of Pharmacology and Toxicology Academy of …, priority 2012, dated 2017).

System in the first data set: not listed separately
In words: Determination of drug-time curve in vivo (serum dihydroartemisinin by LC-MS after intravenous injection). Particulars: SD rats, single intravenous (caudal vein) injection, dose equivalent to 10 mg/kg artesunate. How it is done: Samples: Artesunate, Compounds 1-4.
Preparation of samples: artesunate was dissolved with 5% NaHCO3 physiological saline to obtain 10 mg/ml colorless pellucid solution; Compound 1 was dissolved with injection physiological saline to prepare a colorless pellucid solution containing equivalently 10 mg/ml artesunate.
Animals: SD rats were purchased from the Animal Center of the Military Medical Science Academy of the PLA, body weight 200±10 g, male, conventionally raised, free diet.
Experimental method: solutions of artesunate and Compound 1 samples were administrated to each rat by intravenous injection in an amount of 0.2 ml (a dose equivalent to 10 mg/kg artesunate). Blood samples were collected at 0 min, 10 min, 20 min, 30 min, 45 min, 1 hr, 1.5 hr, 2 hr, 2.5 hr, 3 hr, 4 hr, 6 hr, 8 hr, 10 hr, respectively, and serum concentration of dihydroartemisinin were measured by LC-MS method.
Experimental Results: See FIG. 1.
In the case of “[(Artesunate-)2-Lys-]2-PEG20k [Compound 1]”, the “half-life extended in comparison with artesunate” value was “about 5 times”.

The next data set has as its system Plasmodium berghei. Kind of data set: Evaluation of anti-malarial effects (murine malaria 4 day inhibition method, infected Kunming mice). Format: in vivo. The following applies: intraperitoneal injection, dose equivalent to 10 mg/kg artesunate, 4 administrations, D4, mean (range). How it is done: Preparation of animals and pathological models: Kunming mice were purchased from the Animal Center of the Military Medical Science Academy of the PLA, body weight 20±2 g, female, conventionally raised, free diet. The mice were inoculated 1×10^7 plasmodia via intraperitoneal injection on the test day (DO) to infect red blood cells to establish murine malaria infection models.
Dosage regimen: the solutions of artesunate and PEGlyation derivatives thereof were diluted with injection water to a concentration equivalent to 1 mg/ml artesunate, and each mouse was administrated by 0.2 ml intraperitoneal injection (a dose equivalent to 10 mg/kg artesunate). First administration was performed 3 hours after the mice were infected, then administrated once per 24 hours, until the 3rd day (D3) after infection, that was, totally administrated for 4 times. The placebo control group was injected with physiological saline of same volume.
On the 4th day (D4) after administration of 10 mg/kg body weight artesunate and its PEGlyation derivatives, their inhibition rates to Plasmodium berghei were all 80% or more, and there was no significant difference of inhibition rate between the derivatives and artesunate (Table 1).
Turning to `C[C@H]1[C@H](OC(=O)CCC(=O)O)O[C@@H]2O[C@@]3(C)CC[C@H]4[C@H](C)CC[C@@H]1[C@@]24OO3` [Artesunate], the “inhibition rates to Plasmodium berghei, Mean (column group headed Parasitemia (%))” value is on record as 84.0(76.0-94.6) %.

As to “[(Artesunate-)2-Lys-]2-PEG20k [Compound 1]”, the “inhibition rates to Plasmodium berghei, Mean (column group headed Parasitemia (%))” value was 87.2(82.7-92.7) %.

For “Artesunate-NH-PEG20k-NH-Artesunate [Compound 4]”, the “inhibition rates to Plasmodium berghei, Mean (column group headed Parasitemia (%))” value is given as 80.8(79.7-87.0) %.

For mPEG20k-Lys2-(Artesunate)4 [Compound 3], the “inhibition rates to Plasmodium berghei, Mean (column group headed Parasitemia (%))” value is listed as 92.1(87.8-95.1) %.

With mPEG20k-Lys-(Artesunate)2 [Compound 2], the “inhibition rates to Plasmodium berghei, Mean (column group headed Parasitemia (%))” value is 87.0(79.3-97.4) %.
